Values of other authors in US20180250233A1, “TABLETS HAVING MEDIA INDEPENDENT ACTIVE SUBSTANCE DELIVERY” (MERCK PATENT GMBH, priority 2015, published 2018).

CC(C)NCC(O)COc1cccc2ccccc12 (centres unmarked) [propranolol]
elimination half-life (in vivo): 2 to 6 h
bioavailability (oral administration, pronounced first-pass metabolism): 25-30%
